Source: PMC7756666, “Non‐Stationary Complementary Non‐Uniform Sampling (NOSCO NUS) for Fast Acquisition of Serial 2D NMR Titration Data” (Angewandte Chemie (International Ed. in English), 2020)
Ends that are not written are not given here.

Target: T1, SH3 domain of α‐spectrin (Gallus gallus, UniProt P07751)
T1 construct: SH3 domain of α‐spectrin, has 60 residues
Assay: NMR titration (2D 1H-15N HSQC), p41 binding by SH3
Settings: system as introduced in text; pH 3.5; 8 ligand-to-protein ratios; no spread given; read-out: KD (dissociation constant)
Excerpt: The critical information on molecular dissociation constants, K D, and chemical shift perturbation (CSP) amplitudes, Δv, can be derived by individually fitting the correlated signal frequencies, observed in the 2D protein NMR spectra of a titration series, to the equation [Eq. 1]:(1) νI=νI,0+f(x,KD)·ΔνI
where [Eq. 2](2) f(x,KD)=KD+(1+x)cP-(KD+(1+x)cP)^2-4cP2x/2cP
v I is the observed chemical shift (I=^15N or^1H ), v I,0 is the pertaining reference chemical shift in the absence of ligand; Δv I is the maximal CSP amplitude due to ligand binding; x=c L/ c P is the ligand to protein molar ratio; c P is the total protein concentration.
NMR frequency sampling in an indirect time dimension is a lengthy process (fundamental reasons described in SI). Here we propose a method for complementary non‐uniform sampling (NUS) of entire titration series of 2D ^1H‐^15N HSQC spectra within less time even than required for a single conventional spectrum. For this we sample the indirect t 1(^15N) dimension as in a standard NUS experiment, yet with complementary sampling schedules for the different titration points such that each ligand‐to‐protein ratio, x, is sampled for a unique set of t 1 times (Figure 1). A full grid of 256 t 1 increments in a titration series with 8 different x ratios would, thus, be sampled in 8 complementary schedules of 32 points. […]

T1 sequence (P07751 967-1026 limits assumed): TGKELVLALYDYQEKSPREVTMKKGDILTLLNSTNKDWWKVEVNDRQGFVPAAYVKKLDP

For APSYSPPPPP [p41], the Kd was 9 mM.
